Data taken from patent publication US12551437B2, “Liposome compositions comprising weak acid drugs and uses thereof” (Pharmosa Biopharm Inc., priority 2017, dated 2026).

Assays:
[1] = Drug loading and encapsulation efficiency of liposome suspensions (G-25 column separation, HPLC); assay type: physicochemical
Experimental: Liposome colloidal suspensions were prepared by ethanol injection technique. […] (DSPE-PEG2000) were dissolved in 2.86 ml of ethanol. The lipid solution in ethanol was injected into 17.4 ml of sodium acetate (200 mM or 400 mM) with vigorous stirring at 60° C. Liposomes were formed as soon as the lipid solution was in contact with sodium acetate. This was followed by extruding the liposome suspension through a 200 nm and a 100 nm polycarbonate membrane (six times, respectively). The liposome with about 100 nm was obtained and diafiltrated against a citrate buffer (pH 5.5) to form a higher inside/lower outside pH gradient between the external medium and the internal aqueous medium of the liposomes. The empty liposome suspension was then stored at 4° C. before drug loading process.
PGE1 (alprostadil) was added to the liposome suspension in the preceding paragraph at various drug/lipid molar ratios at room temperature (25° C.) for 20 min. The PGE1 loaded liposome suspension was stored at 4° C.
The liposome suspension was prepared according to the method described in Section 1.1, except that sodium acetate (200 mM or 400 mM) was replaced by sodium bicarbonate (e.g. 200 mM, 400 mM or other concentrations).
The amount of the drug encapsulated into the liposome was quantified using Waters Alliance® HPLC system with a Photodiode Array (PDA) Detector. […] Separation was performed in C18 Column (Phenomenex Prodigy 5U ODS-3 150×4.6 mm), and then post-reaction was carried out by mixed with IN of KOH at 65° C. The peak of the drug e.g. PGE1 was detected at 280 nm. The retention time was about 4.6 minutes.
Encapsulation efficiency (EE), i.e. the percentage of the drug encapsulated (or loaded) in the internal aqueous medium of the liposomes to the total amount of the drug present in the liposome suspension (i.e. drug in the external medium and drug loaded into the internal aqueous medium of the liposomes) was quantified as follows. Briefly, the liposome suspension was subjected to column chromatography. The free or non-associated drug (i.e. the drug in the external medium) and the liposomes containing the encapsulated drugs in the internal aqueous medium were separated from each other by eluting the liposome suspension through a G-25 column. The amount of the free drug was determined using Waters HPLC with PDA detection, and the amount of the encapsulated drug in the internal aqueous medium of the liposome, after destructing the liposomes with methanol (90% methanol and 10% liposome suspension), was also determined using the same method. The encapsulation efficiency was calculated using the following formula,
[formula] where L is the amount of the encapsulated drug in the internal aqueous medium of the liposomes, and F is the amount of the free drug in the external medium.
In addition, the internal drug concentration (mM) was calculated as follows. Internal drug concentration (mM)=[Drug [μg/mL]×EE %/molecular weight]/[trapped volume*]

[2] = cited from earlier work
pulmonary hypertension = assay: Hypoxia-induced pulmonary hypertension in rats, mean pulmonary arterial pressure (PAP); assay type: in vivo, Sprague Dawley rats; conditions: treprostinil at 6 μg/kg, single dose, microsprayer at the trachea bifurcation, hypoxic rats (FiO2=0.1)
Experimental: To induce pulmonary hypertension, a pressure catheter was inserted into the pulmonary artery of each rat. One end of the catheter was exposed at the nape of the neck and connected to a pressure transducer. 24 Hours after the catheter insertion, the rats were transferred into a hypoxic chamber where the oxygen (O2) level was reduced to 10% (FiO2=0.1) by increasing the level of nitrogen (N2). Once stable pulmonary hypertension was established, each rat was administered with a single dose of the three test articles: saline (N=6), free treprostinil at 6 μg/kg (N=6) or the pharmaceutical composition of Example 4 with treprostinil at 6 μg/kg (liposomal treprostinil, N=6). The test article was administered using a microsprayer at the trachea bifurcation of the rat. Following the test article administration, mean pulmonary arterial pressure (PAP) was measured at scheduled time points.

[3] = Incubation of liposome suspensions at simulated human physiological condition: pH of external medium and leakage; assay type: physicochemical; conditions: 20 minutes; for pH at incubation temperature: external buffer 280 mOsm/Kg, citrate 10 mM; for liposome leakage: 280 mOsm/Kg
Experimental: Liposome suspensions using various concentrations of sodium bicarbonate for PGE1 loading were prepared according to section 1.1 of Example 1. The liposome suspensions were incubated at 25° C. and 37° C. for 20 minutes in an external buffer with osmolarity between 280-300 mOsm/Kg, to simulate human physiological condition.
Incubating formulations with a bicarbonate concentration of higher than about 1000 mM in human physiological condition (37° C. and 280-300 mOsm/Kg) generated more CO2, and lead to liposome leakage. The leaked liposomes released bicarbonate salt and the drug from the internal aqueous medium into the external medium and increased the pH of external medium to higher than 6.5.

[4] = liposomal formulation (4-2) HSPC:cholesterol:DSPG 3:2:0.075, internal bicarbonate salt 400 mM, drug loading at 40° C.
[5] = liposomal formulation (4-1) HSPC:cholesterol:DSPE-mPEG2000 3:2:0.075, internal bicarbonate salt 400 mM, drug loading at 40° C.
[6] = liposomal formulation (4-3) DPPC:Cholesterol:DSPE-mPEG2000 3:2:0.075, internal bicarbonate salt 400 mM, drug loading at 40° C.
[7] = liposomal formulation (4-4) DSPC:DPPC:Cholesterol:mPEG2000-DSPE 2.7:0.3:2:0.075, internal bicarbonate salt 250 mM, drug loading at 40° C.
[8] = liposomal formulation (4-5) HSPC:Cholesterol:mPEG2000-DSPE:stearylamine 3:2:0.075:0.025, internal bicarbonate salt 400 mM, drug loading at 40° C.
[9] = liposomal formulation (4-6) HSPC:DMPC:Cholesterol:mPEG2000-DSPE 2.7:0.3:2:0.075, internal bicarbonate salt 400 mM, drug loading at 40° C.
[10] = liposomal formulation (4-1) HSPC:cholesterol:DSPE-mPEG2000 3:2:0.075, internal bicarbonate salt 400 mM, drug loading at 25° C.
[11] = sodium bicarbonate internal salt 50 mM, 10 mM of phospholipid
[12] = sodium bicarbonate internal salt 150 mM, 10 mM of phospholipid
[13] = sodium bicarbonate internal salt 200 mM, 10 mM of phospholipid
[14] = sodium bicarbonate internal salt 250 mM, 10 mM of phospholipid
[15] = sodium bicarbonate internal salt 300 mM, 10 mM of phospholipid
[16] = sodium bicarbonate internal salt 400 mM, 10 mM of phospholipid
[17] = sodium bicarbonate internal salt 500 mM, 5 mM of phospholipid
[18] = sodium bicarbonate internal salt 600 mM, 10 mM of phospholipid
[19] = sodium bicarbonate internal salt 800 mM, 10 mM of phospholipid
[20] = liposomal formulation (4-1) HSPC:cholesterol:DSPE-mPEG2000 3:2:0.075, internal bicarbonate salt 200 mM, drug loading at 25° C.

CC#CCC(C)[C@H](O)/C=C/[C@@H]1[C@H]2C/C(=C/CCCC(=O)O)C[C@H]2C[C@H]1O (stereo partly drawn) [Iloprost]
E.E. [1, 4]: 97.4%
Internal [drug] [1, 4]: 170.34 mM
Internal drug to internal salt molar ratio [1, 4]: 0.426
Measured [drug] [1, 4]: 395.9 µg/mL
pKa [2]: 4.66

O=C(O)COC(=O)Cc1ccccc1Nc1c(Cl)cccc1Cl [Aceclofenac]
pKa [2]: 4.7

CC1(C)[C@@H](OC(=O)CCC(=O)O)CC[C@]2(C)[C@H]3C(=O)C=C4[C@@H]5C[C@@](C)(C(=O)O)CC[C@]5(C)CC[C@@]4(C)[C@]3(C)CC[C@@H]12 [Carbenoxolone sodium]
pKa [2]: 4.7

C[C@H]1C[C@@H]2[C@H]([C@@H](O)C[C@@]3(C)[C@H]2CC[C@]3(O)C(=O)COC(=O)CCC(=O)O)[C@@]2(C)C=CC(=O)C=C12 [Methylprednisolone sodium succinate]
pKa [2]: 4.6

C[C@H]1C[C@@H]2[C@H]([C@@H](O)C[C@@]3(C)[C@H]2CC[C@]3(O)C(=O)COC(=O)CCC(=O)O)[C@@]2(C)C=CC(=O)C=C12 [Methylprednisolone Hemisuccinate (MPSS), Methylprednisolone Hemisuccinate]
E.E. [1, 5]: 85.9%
Internal [drug] [1, 5]: 65.27 mM
Internal drug to internal salt molar ratio [1, 5]: 0.163
Measured [drug] [1, 5]: 1132.2 µg/mL
pKa [2]: 4.29

CCCCC[C@H](O)CC[C@@H]1[C@H]2Cc3cccc(OCC(=O)O)c3C[C@H]2C[C@H]1O [Prostacycline (treprostinil), treprostinil]
maximum reduction of mean PAP (pulmonary hypertension): 20%
E.E. [1, 4]: 97.6%
Internal [drug] [1, 4]: 121.78 mM
Internal drug to internal salt molar ratio [1, 4]: 0.304
Measured [drug] [1, 4]: 1530.0 µg/mL
E.E. [1, 6]: 90.4%
Internal [drug] [1, 6]: 115.01 mM
Internal drug to internal salt molar ratio [1, 6]: 0.288
Measured [drug] [1, 6]: 1560 µg/mL
E.E. [1, 7]: 97.4%
Internal [drug] [1, 7]: 77.84 mM
Internal drug to internal salt molar ratio [1, 7]: 0.311
Measured [drug] [1, 7]: 980 µg/mL
E.E. [1, 8]: 93.7%
Internal [drug] [1, 8]: 114.62 mM
Internal drug to internal salt molar ratio [1, 8]: 0.287
Measured [drug] [1, 8]: 1500 µg/mL
E.E. [1, 9]: 94.5%
Internal [drug] [1, 9]: 119.45 mM
Internal drug to internal salt molar ratio [1, 9]: 0.299
Measured [drug] [1, 9]: 1550 µg/mL

CCCCC[C@H](O)/C=C/[C@@H]1[C@H]2C/C(=C/CCCC(=O)O)O[C@H]2C[C@H]1O [Epoprostenol]
pKa [2]: 4.43

O=C(c1ccccc1)c1ccc2n1CCC2C(=O)O (stereo not drawn) [Ketorolac sodium]
pKa [2]: 3.8

CN1C(C(=O)Nc2ccccn2)=C(O)c2sc(Cl)cc2S1(=O)=O [Lornoxicam]
E.E. [1, 5]: 93.3%
Internal [drug] [1, 5]: 88.41 mM
Internal drug to internal salt molar ratio [1, 5]: 0.221
Measured [drug] [1, 5]: 1106.3 µg/mL
pKa [2]: 1.8

C[C@@H]1C[C@H]2[C@@H]3CCC4=CC(=O)C=C[C@]4(C)[C@@]3(F)[C@@H](O)C[C@]2(C)[C@@]1(O)C(=O)COP(=O)(O)O [Dexamethasone sodium phosphate]
pKa [2]: 1.89

O=C(O)CCc1nc(-c2ccccc2)c(-c2ccccc2)o1 [Oxaprozin]
pKa [2]: 4.95

O=C(Oc1ccccc1C(=O)O)c1ccccc1O [Salsalate (Disalcid), Salsalate]
pKa [2]: 3.4

CCCCC[C@H](O)/C=C/[C@H]1[C@H](O)CC(=O)[C@@H]1CCCCCCC(=O)O [Prostaglandin E1 (PGE1), Prostaglandin E1]
E.E. [1, 10]: 92.8%
Internal [drug] [1, 10]: 161.81 mM
Internal drug to internal salt molar ratio [1, 10]: 0.405
Measured [drug] [1, 10]: 1940.8 µg/mL
E.E. [1, 11]: 93.8%
Internal [PGE1] [1, 11]: 19.08 mM
Internal drug to internal salt molar ratio [1, 11]: 0.382
[PGE1] [1, 11]: 226.4 µg/mL
E.E. [1, 12]: 95.7%
Internal [PGE1] [1, 12]: 60.25 mM
Internal drug to internal salt molar ratio [1, 12]: 0.402
[PGE1] [1, 12]: 700.7 µg/mL
E.E. [1, 13]: 95.9%
Internal [PGE1] [1, 13]: 80.47 mM
Internal drug to internal salt molar ratio [1, 13]: 0.402
[PGE1] [1, 13]: 934.0 µg/mL
E.E. [1, 14]: 92.3%
Internal [PGE1] [1, 14]: 119.94 mM
Internal drug to internal salt molar ratio [1, 14]: 0.480
[PGE1] [1, 14]: 1446.4 µg/mL
E.E. [1, 15]: 92.7%
Internal [PGE1] [1, 15]: 146.32 mM
Internal drug to internal salt molar ratio [1, 15]: 0.488
[PGE1] [1, 15]: 1756.9 µg/mL
E.E. [1, 16]: 92.8%
Internal [PGE1] [1, 16]: 161.81 mM
Internal drug to internal salt molar ratio [1, 16]: 0.405
[PGE1] [1, 16]: 1940.8 µg/mL
E.E. [1, 17]: 96.0%
Internal [PGE1] [1, 17]: 252.52 mM
Internal drug to internal salt molar ratio [1, 17]: 0.505
[PGE1] [1, 17]: 1463.9 µg/mL
E.E. [1, 18]: 93.1%
Internal [PGE1] [1, 18]: 215.66 mM
Internal drug to internal salt molar ratio [1, 18]: 0.359
[PGE1] [1, 18]: 2578.3 µg/mL
E.E. [1, 19]: 90.2%
Internal [PGE1] [1, 19]: 130.87 mM
Internal drug to internal salt molar ratio [1, 19]: 0.164
[PGE1] [1, 19]: 1614.9 µg/mL
pKa [2]: 4.35
pH at incubation temperature ([3]; bicarbonate 600 mM, 25° C.): 5.42
pH at incubation temperature ([3]; bicarbonate 600 mM, 37° C.): 5.43
pH at incubation temperature ([3]; bicarbonate 800 mM, 25° C.): 5.38
pH at incubation temperature ([3]; bicarbonate 800 mM, 37° C.): 5.53
pH at incubation temperature ([3]; bicarbonate 1000 mM, 25° C.): 5.37
liposome leakage ([3]; bicarbonate 1000 mM, 37° C.): leakage
pH at incubation temperature ([3]; bicarbonate 1000 mM, 37° C.): 6.68
pH at incubation temperature ([3]; bicarbonate 1300 mM, 25° C.): 5.44
liposome leakage ([3]; bicarbonate 1300 mM, 37° C.): leakage
pH at incubation temperature ([3]; bicarbonate 1300 mM, 37° C.): 6.74

O=C(O)COC[C@H]1CC[C@H](COC(=O)N(c2ccccc2)c2ccc(Cl)cc2)CC1 [Ralinepag (APD811), Ralinepag]
pKa [2]: 3.5

CC#CCC(C)[C@H](O)/C=C/[C@@H]1[C@H]2c3cccc(CCCC(=O)O)c3O[C@H]2C[C@H]1O (mixture of isomers) [Beraprost]
pKa [2]: 4.2

CN1C(C(=O)Nc2ccccn2)=C(O)c2ccccc2S1(=O)=O [Piroxicam]
E.E. [1, 5]: 84.5%
Internal [drug] [1, 5]: 76.72 mM
Internal drug to internal salt molar ratio [1, 5]: 0.192
Measured [drug] [1, 5]: 944.7 µg/mL
pKa [2]: 4.8

CCCCC[C@H](O)/C=C/[C@H]1[C@H](O)CC(=O)[C@@H]1C/C=C\CCCC(=O)O [Prostaglandin E2 (PGE2), Prostaglandin E2]
pKa [2]: 4.3

C[C@]12CCC(=O)C=C1CC[C@@H]1[C@@H]2[C@@H](O)C[C@@]2(C)[C@H]1CC[C@]2(O)C(=O)COC(=O)CCC(=O)O [Hydrocortisone sodium succinate]
pKa [2]: 3.66

CC(C)N(CCCCOCC(=O)O)c1cnc(-c2ccccc2)c(-c2ccccc2)n1 [MIRE-269 (ACT-333679)]
E.E. [1, 4]: 98.7%
Internal [drug] [1, 4]: 65.41 mM
Internal drug to internal salt molar ratio [1, 4]: 0.164
Measured [drug] [1, 4]: 174.6 µg/mL
pKa [2]: 3.77

O=C(c1ccccc1)c1ccc2n1CCC2C(=O)O (stereo not drawn) [Ketorolac]
E.E. [1, 20]: 91.0%
Internal [drug] [1, 20]: 87.06 mM
Internal drug to internal salt molar ratio [1, 20]: 0.435
Measured [drug] [1, 20]: 766.8 µg/mL
E.E. [1, 10]: 91.2%
Internal [drug] [1, 10]: 135.71 mM
Internal drug to internal salt molar ratio [1, 10]: 0.339
Measured [drug] [1, 10]: 1192.7 µg/mL
